Reference: the NIST ThermoML archive (doi:10.1016/j.jct.2011.02.005)
Numbers after ± are expanded uncertainties.

Test: mn = molality of the nth substance listed, in mol/kg
Settings: 298.15 K, 101 kPa, Liquid, Vibrating tube method

mass density (m1 = 0.0499) [kg/m3] | mass density (m1 = 0.1004) [kg/m3] | mass density (m1 = 0.1501) [kg/m3] | mass density (m1 = 0.2) [kg/m3] | mass density (m1 = 0.2492) [kg/m3] | mass density (m1 = 0.2995) [kg/m3] | mass density (m1 = 0.3512) [kg/m3] | mass density (m1 = 0.3991) [kg/m3] | mass density (m1 = 0.4485) [kg/m3] | mass density (m1 = 0.5013) [kg/m3] | mass density (m1 = 0.5509) [kg/m3] | mass density (m1 = 0.5987) [kg/m3] | mass density (m1 = 0.1998) [kg/m3] | mass density (m1 = 0.35) [kg/m3] | mass density (m1 = 0.4985) [kg/m3] | mass density (m1 = 0.6496) [kg/m3] | mass density (m1 = 0.7999) [kg/m3] | mass density (m1 = 0.95) [kg/m3] | Structure (SMILES)
1000.08 ± 0.064 | 1002.85 ± 0.065 | 1005.55 ± 0.066 | 1008.22 ± 0.067 | 1010.83 ± 0.068 | 1013.46 ± 0.069 | 1016.13 ± 0.07 | 1018.57 ± 0.071 | 1021.04 ± 0.072 | 1023.68 ± 0.074 | 1026.15 ± 0.075 | 1028.49 ± 0.076 | – | – | – | – | – | – | O=C(O)CNCC(=O)O [N-(carboxymethyl)glycine] + O
– | – | – | – | – | – | – | – | – | – | – | – | 1006.8 ± 0.067 | 1013.81 ± 0.07 | 1020.47 ± 0.073 | 1027.38 ± 0.077 | 1033.72 ± 0.08 | 1039.84 ± 0.084 | OC[C@@H](O)[C@H](O)[C@@H](O)CO [xylitol] + O
